molecular target: Nav 1.7 (Homo sapiens (Human), UniProt Q15858); experiment: in-vitro Nav 1.7 PX (IC50); format: cell-based; settings: not given
Sequence (Q15858 whole entry): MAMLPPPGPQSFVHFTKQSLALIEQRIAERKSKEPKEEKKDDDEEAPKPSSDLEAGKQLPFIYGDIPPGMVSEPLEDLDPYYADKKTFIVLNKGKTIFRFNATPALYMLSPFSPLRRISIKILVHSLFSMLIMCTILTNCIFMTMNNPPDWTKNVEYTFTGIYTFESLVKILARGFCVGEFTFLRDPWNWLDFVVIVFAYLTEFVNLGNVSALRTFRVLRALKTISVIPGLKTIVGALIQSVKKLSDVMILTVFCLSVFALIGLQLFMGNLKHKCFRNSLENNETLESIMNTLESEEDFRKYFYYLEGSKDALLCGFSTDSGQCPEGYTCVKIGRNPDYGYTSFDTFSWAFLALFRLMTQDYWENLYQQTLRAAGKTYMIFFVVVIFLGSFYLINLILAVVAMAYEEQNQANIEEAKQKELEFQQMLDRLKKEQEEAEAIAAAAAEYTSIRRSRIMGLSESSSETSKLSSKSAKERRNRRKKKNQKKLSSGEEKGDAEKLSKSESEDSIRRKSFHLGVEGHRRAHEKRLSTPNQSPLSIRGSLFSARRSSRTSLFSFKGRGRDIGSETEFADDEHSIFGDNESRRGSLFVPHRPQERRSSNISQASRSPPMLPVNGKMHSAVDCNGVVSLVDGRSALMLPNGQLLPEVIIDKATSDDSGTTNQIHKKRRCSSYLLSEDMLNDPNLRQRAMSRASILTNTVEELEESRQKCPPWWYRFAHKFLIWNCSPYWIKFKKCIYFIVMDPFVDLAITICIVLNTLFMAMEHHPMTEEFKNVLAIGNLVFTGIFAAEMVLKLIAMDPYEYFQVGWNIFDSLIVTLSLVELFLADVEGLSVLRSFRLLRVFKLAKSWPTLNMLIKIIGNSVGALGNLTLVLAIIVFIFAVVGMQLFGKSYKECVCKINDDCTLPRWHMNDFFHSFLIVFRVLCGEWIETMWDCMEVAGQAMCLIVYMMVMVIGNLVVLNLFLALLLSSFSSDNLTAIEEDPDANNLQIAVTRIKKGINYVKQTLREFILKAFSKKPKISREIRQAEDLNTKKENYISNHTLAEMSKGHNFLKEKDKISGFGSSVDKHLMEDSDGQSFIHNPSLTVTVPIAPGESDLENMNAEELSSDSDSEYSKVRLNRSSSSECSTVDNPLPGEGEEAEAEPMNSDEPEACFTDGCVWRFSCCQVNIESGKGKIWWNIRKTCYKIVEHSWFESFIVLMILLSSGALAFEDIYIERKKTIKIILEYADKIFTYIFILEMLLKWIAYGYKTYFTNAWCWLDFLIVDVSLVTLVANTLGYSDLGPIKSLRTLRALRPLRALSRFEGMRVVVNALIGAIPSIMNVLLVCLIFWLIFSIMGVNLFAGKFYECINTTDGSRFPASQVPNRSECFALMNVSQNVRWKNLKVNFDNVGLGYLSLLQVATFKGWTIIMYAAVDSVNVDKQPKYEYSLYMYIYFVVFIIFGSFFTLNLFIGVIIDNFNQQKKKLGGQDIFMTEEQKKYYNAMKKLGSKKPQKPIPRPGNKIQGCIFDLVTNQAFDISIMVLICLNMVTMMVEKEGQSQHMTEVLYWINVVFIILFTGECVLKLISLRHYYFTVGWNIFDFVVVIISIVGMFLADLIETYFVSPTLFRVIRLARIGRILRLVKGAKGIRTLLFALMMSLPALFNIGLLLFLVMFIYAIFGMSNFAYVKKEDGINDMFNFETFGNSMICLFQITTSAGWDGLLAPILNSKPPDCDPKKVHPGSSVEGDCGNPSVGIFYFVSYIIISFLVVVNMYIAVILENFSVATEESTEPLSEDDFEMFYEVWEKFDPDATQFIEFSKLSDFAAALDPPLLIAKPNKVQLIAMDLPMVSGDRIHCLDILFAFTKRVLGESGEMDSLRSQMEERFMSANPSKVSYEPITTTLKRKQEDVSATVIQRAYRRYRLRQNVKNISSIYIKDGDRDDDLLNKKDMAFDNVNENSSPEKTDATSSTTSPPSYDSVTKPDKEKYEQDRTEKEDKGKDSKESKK

Row | IC50 | Compound
1 | 17.2 µM | COc1nc(C2CC2)c(Cl)cc1-n1c(=O)ccc2cc(S(=O)(=O)Nc3ccon3)ccc21 (atropisomer, axis not shown; (M)) [Example 1229, (M)-1-(5-chloro-6-cyclopropyl-2-methoxy-3-pyridinyl)-N-3-isoxazolyl-2-oxo-1,2-dihydro-6-quinolinesulfonamide]
2 | 6.64 µM | COc1cc(Br)c(F)cc1-n1c(=O)ccc2cc(S(=O)(=O)Nc3cc(OCC4CCCC4)ncn3)ccc21 (atropisomer, axis not shown; (P)) [Example 1185, (P)-1-(4-bromo-5-fluoro-2-methoxyphenyl)-N-(6-(cyclopentylmethoxy)-4-pyrimidinyl)-2-oxo-1,2-dihydro-6-quinolinesulfonamide]
3 | 0.008 µM | COc1cc(-c2cc(C)cc(Cl)c2)ccc1-n1c(=O)ccc2cc(S(=O)(=O)Nc3ccon3)ccc21 (atropisomer, axis not shown; (P)) [Example 585, (P)-1-(3′-chloro-3-methoxy-5′-methyl-4-biphenylyl)-N-3-isoxazolyl-2-oxo-1,2-dihydro-6-quinolinesulfonamide]
4 | 0.316 µM | COc1nc(Oc2cccc(Cl)c2C)c(Cl)cc1-n1c(=O)ccc2cc(S(=O)(=O)Nc3ccon3)ccc21 [Example 1226, 1-(5-chloro-6-(3-chloro-2-methylphenoxy)-2-methoxy-3-pyridinyl)-N-3-isoxazolyl-2-oxo-1,2-dihydro-6-quinolinesulfonamide]
5 | 0.096 µM | COc1cc(OC)cc(-c2cc(OC)c(-n3c(=O)ccc4cc(S(=O)(=O)Nc5ccnc(C)n5)ccc43)cc2F)c1 (atropisomer, axis not shown; (P)) [Example 1171, (P)-1-(2-fluoro-3′,5,5′-trimethoxy-4-biphenylyl)-N-(2-methyl-4-pyrimidinyl)-2-oxo-1,2-dihydro-6-quinolinesulfonamide]
6 | 6.61 µM | O=c1ccc2cc(S(=O)(=O)Nc3ccon3)ccc2n1-c1ccc(C(F)(F)F)cc1-c1cn[nH]c1 [Example 347, M-1-(2-(1H-pyrazol-4-yl)-4-(trifluoromethyl)phenyl)-N-(isoxazol-3-yl)-2-oxo-1,2-dihydroquinoline-6-sulfonamide]

Row | Compound | IC50
7 | CCOc1cc(-c2cccc(F)c2)c(F)cc1-n1c(=O)ccc2cc(S(=O)(=O)Nc3ccon3)ccc21 (atropisomer, axis not shown; (M)) [Example 389, (M)-1-(5-ethoxy-2,3′-difluoro-[1,1′-biphenyl]-4-yl)-N-(isoxazol-3-yl)-2-oxo-1,2-dihydroquinoline-6-sulfonamide] | 0.239 µM

same assay, conditions: in-vitro Nav 1.7 PX data

Row | Compound | IC50
8 | COc1cc(Cl)cc(-c2ccc(-n3c(=O)ccc4cc(S(=O)(=O)Nc5ncco5)ccc43)c(OC)c2)c1 [Example 925, 1-(3′-chloro-3,5′-dimethoxy-4-biphenylyl)-N-1,3-oxazol-2-yl-2-oxo-1,2-dihydro-6-quinolinesulfonamide] | 0.022 µM
9 | COc1cc(-c2cccc(C(F)(F)F)c2)ccc1-n1c(=O)ccc2cc(S(=O)(=O)Nc3cc(C)cnn3)ccc21 [Example 1137, 1-(3-methoxy-3′-(trifluoromethyl)-4-biphenylyl)-N-(5-methyl-3-pyridazinyl)-2-oxo-1,2-dihydro-6-quinolinesulfonamide] | 0.036 µM
10 | COc1cc(C[C@H]2CCCCO2)c(F)cc1-n1c(=O)ccc2cc(S(=O)(=O)Nc3ccon3)ccc21 [Example 1133, 1-(5-fluoro-2-methoxy-4-((2R)-tetrahydro-2H-pyran-2-ylmethyl)phenyl)-N-3-isoxazolyl-2-oxo-1,2-dihydro-6-quinolinesulfonamide, 1-(5-fluoro-2-methoxy-4-((2S)-tetrahydro-2H-pyran-2-ylmethyl)phenyl)-N-3-isoxazolyl-2-oxo-1,2-dihydro-6-quinolinesulfonamide] | 2.26 µM
11 | COc1cc(F)cc(-c2ccc(-n3c(=O)ccc4cc(S(=O)(=O)Nc5ncc(F)cn5)ccc43)c(OC)c2)c1 [Example 998, 1-(3′-fluoro-3,5′-dimethoxy-4-biphenylyl)-N-(5-fluoro-2-pyrimidinyl)-2-oxo-1,2-dihydro-6-quinolinesulfonamide] | 0.089 µM
12 | COc1cc(-c2ccc(Cl)cc2)c(F)cc1-n1c(=O)ccc2cc(S(=O)(=O)Nc3ncccn3)ccc21 (atropisomer, axis not shown) [Example 598, 1-(4′-chloro-2-fluoro-5-methoxy-4-biphenylyl)-2-oxo-N-2-pyrimidinyl-1,2-dihydro-6-quinolinesulfonamide] | 0.028 µM
13 | CC(C#N)Oc1cc(-c2cc(F)cc(F)c2)c(F)cc1-n1c(=O)ccc2cc(S(=O)(=O)Nc3ccon3)ccc21 (stereo not shown) [Example 681, 1-(5-(1-cyanoethoxy)-2,3′,5′-trifluoro-[1,1′-biphenyl]-4-yl)-N-(isoxazol-3-yl)-2-oxo-1,2-dihydroquinoline-6-sulfonamide] | 0.458 µM
14 | COc1cc(F)cc(-c2ccc(-n3c(=O)ccc4cc(S(=O)(=O)Nc5ncccn5)ccc43)c(OC)c2)c1 [Example 996, 1-(3′-fluoro-3,5′-dimethoxy-4-biphenylyl)-2-oxo-N-2-pyrimidinyl-1,2-dihydro-6-quinolinesulfonamide] | 0.052 µM
15 | COc1cc(-c2cc(F)cc(Cl)c2)c(F)cc1-n1c(=O)ccc2cc(S(=O)(=O)Nc3ccnc(C)n3)ccc21 [Example 934, 1-(3′-chloro-2,5′-difluoro-5-methoxy-4-biphenylyl)-N-(2-methyl-4-pyrimidinyl)-2-oxo-1,2-dihydro-6-quinolinesulfonamide] | 0.006 µM
16 | COc1cc(C)cc(-c2cc(OC)c(-n3c(=O)ccc4cc(S(=O)(=O)Nc5ncccn5)ccc43)cc2C)c1 [Example 967, 1-(3′,5-dimethoxy-2,5′-dimethyl-4-biphenylyl)-2-oxo-N-2-pyrimidinyl-1,2-dihydro-6-quinolinesulfonamide] | 0.014 µM
17 | COc1cc(C#CC2CCCC2)c(F)cc1-n1c(=O)ccc2cc(S(=O)(=O)Nc3ncccn3)ccc21 [Example 1134, 1-(4-(cyclopentylethynyl)-5-fluoro-2-methoxyphenyl)-2-oxo-N-2-pyrimidinyl-1,2-dihydro-6-quinolinesulfonamide] | 0.026 µM

Results, then the compound that gave them:

Row | IC50 | Compound
18 | 0.08 µM | COc1cc(-c2ccc(-n3c(=O)ccc4cc(S(=O)(=O)Nc5ccon5)ccc43)c(OC)c2)ccc1F [Example 1017, 1-(4′-fluoro-3,3′-dimethoxy-4-biphenylyl)-N-3-isoxazolyl-2-oxo-1,2-dihydro-6-quinolinesulfonamide]
19 | 0.101 µM | COc1cc(-c2cc(Cl)cnc2OC)ccc1-n1c(=O)ccc2cc(S(=O)(=O)Nc3ccon3)ccc21 [Example 813, 1-(4-(5-chloro-2-methoxy-3-pyridinyl)-2-methoxyphenyl)-N-3-isoxazolyl-2-oxo-1,2-dihydro-6-quinolinesulfonamide]
20 | 0.037 µM | COc1ccc(-c2cc(OC)c(-n3c(=O)ccc4cc(S(=O)(=O)Nc5ccon5)ccc43)cc2F)c(Cl)c1 [Example 699, 1-(2′-chloro-2-fluoro-4′,5-dimethoxy-4-biphenylyl)-N-3-isoxazolyl-2-oxo-1,2-dihydro-6-quinolinesulfonamide]
21 | 0.09 µM | COc1cc(-c2ccccc2F)c(F)cc1-n1c(=O)ccc2cc(S(=O)(=O)Nc3ccon3)ccc21 [Example 951, 1-(2,2′-difluoro-5-methoxy-4-biphenylyl)-N-3-isoxazolyl-2-oxo-1,2-dihydro-6-quinolinesulfonamide]
22 | 0.041 µM | COc1cc(-c2ccc(F)c(F)c2)c(F)cc1-n1c(=O)ccc2cc(S(=O)(=O)Nc3ccnc(C)n3)ccc21 [Example 939, N-(2-methyl-4-pyrimidinyl)-2-oxo-1-(2,3′,4′-trifluoro-5-methoxy-4-biphenylyl)-1,2-dihydro-6-quinolinesulfonamide]
23 | 0.038 µM | COc1cc(-c2cccc(C)c2OC)c(F)cc1-n1c(=O)ccc2cc(S(=O)(=O)Nc3ccon3)ccc21 [Example 792, 1-(2-fluoro-2′,5-dimethoxy-3′-methyl-4-biphenylyl)-N-3-isoxazolyl-2-oxo-1,2-dihydro-6-quinolinesulfonamide]
24 | 0.023 µM | COc1cc(-c2ccc(OC)c(-n3c(=O)ccc4cc(S(=O)(=O)Nc5ccon5)ccc43)c2)ccc1Cl [Example 870, 1-(4′-chloro-3′,4-dimethoxy-3-biphenylyl)-N-3-isoxazolyl-2-oxo-1,2-dihydro-6-quinolinesulfonamide]
25 | 0.573 µM | COc1cc(-c2ccncc2Cl)c(F)cc1-n1c(=O)ccc2cc(S(=O)(=O)Nc3ccon3)ccc21 [Example 748, 1-(4-(3-chloro-4-pyridinyl)-5-fluoro-2-methoxyphenyl)-N-3-isoxazolyl-2-oxo-1,2-dihydro-6-quinolinesulfonamide]
26 | 0.035 µM | COc1cc(-c2cnc(OC)c(Cl)c2)ccc1-n1c(=O)ccc2cc(S(=O)(=O)Nc3ccon3)ccc21 [Example 814, 1-(4-(5-chloro-6-methoxy-3-pyridinyl)-2-methoxyphenyl)-N-3-isoxazolyl-2-oxo-1,2-dihydro-6-quinolinesulfonamide]
27 | 0.041 µM | COc1ccc(-c2cc(OC)c(-n3c(=O)ccc4cc(S(=O)(=O)Nc5ccon5)ccc43)cc2F)cc1F [Example 705, 1-(2,3′-difluoro-4′,5-dimethoxy-4-biphenylyl)-N-3-isoxazolyl-2-oxo-1,2-dihydro-6-quinolinesulfonamide]
28 | 0.007 µM | COc1ccc(Cl)cc1-c1cc(OC)c(-n2c(=O)ccc3cc(S(=O)(=O)Nc4ccon4)ccc32)cc1F [Example 744, 1-(5′-chloro-2-fluoro-2′,5-dimethoxy-4-biphenylyl)-N-3-isoxazolyl-2-oxo-1,2-dihydro-6-quinolinesulfonamide]

same assay, conditions: in-vitro Nav 1.7 PX data (PatchXpress)

Row | IC50 | Compound
29 | 0.025 µM | COc1cc(-c2cccc(C)c2C)ccc1-n1c(=O)ccc2cc(S(=O)(=O)Nc3ccon3)ccc21 [Example 1056, N-3-isoxazolyl-1-(3-methoxy-2′,3′-dimethyl-4-biphenylyl)-2-oxo-1,2-dihydro-6-quinolinesulfonamide]
30 | 0.025 µM | COc1ccc(Cl)c(-c2ccc(-n3c(=O)ccc4cc(S(=O)(=O)Nc5ccon5)ccc43)c(OC)c2)c1 [Example 1031, 1-(2′-chloro-3,5′-dimethoxy-4-biphenylyl)-N-3-isoxazolyl-2-oxo-1,2-dihydro-6-quinolinesulfonamide]

same assay, conditions: in-vitro PatchXpress (PX)

Row | IC50 | Compound
31 | 1.8 µM | COc1cc(-c2ccncc2)c(F)cc1-n1c(=O)ccc2cc(S(=O)(=O)Nc3ccon3)ccc21 [Example 505, 1-(5-fluoro-2-methoxy-4-(4-pyridinyl)phenyl)-N-3-isoxazolyl-2-oxo-1,2-dihydro-6-quinolinesulfonamide]

Source: patent publication US9212182B2, “Bicyclic sulfonamide compounds as sodium channel inhibitors” (AMGEN INC., priority 2013, dated 2015)
